From US20050002861A1, “Enhanced scintigraphic imaging agents for imaging of infection and inflammation” (priority 2003, published 2005)
Where no end group is shown, it is not given here.

Test system: muscle tissue infected by E. coli
Experiment: E. coli rabbit infection model: infection uptake and biodistribution of Tc-99m PGC's
Assay type: in vivo, New Zealand White (NZW) rabbits
Conditions: only some lysines replaced by arginine; compared with Tc-99m P1827H
Source text: In yet another aspect of the present invention, the compositions of the invention are capable of achieving a favorable biodistribution that is characterized by a specific accumulation at the site to be imaged, e.g. in an infected muscle, and at the same time a low concentration in uninfected areas, such as normal muscle or blood. The biodistribution of the radiolabeled compositions of the invention may be expressed by means of an image contrast ratio. The image contrast ratio can be determined as the ratio Imax(infected muscle)/Imax(control muscle), hereinafter referred to as Imax:C, i.e., the maximum radioactivity accumulated in an infected muscle sample versus the maximum radioactivity accumulated in a control, i.e., uninfected, muscle sample. The radioactivity is measured as % of injected dose per gram of tissue/blood, i.e., % ID/g. For the determination of Imax values (and Iavg values; see below), the tissue or blood samples are divided into six parts of equal size/weight and the radioactivity in each of the six samples is counted. The sample with the highest radioactivity is used for the Imax value (the average of all six samples was used for Iavg). Imax (and Iavg) values are expressed as % ID/g. […]

| Substance | improvement over Tc-99m P1827H |
| --- | --- |
| Ac-KKKKKCGCGGPLYRRIIRRLLES (cysteine pairing not given here) [P1829] | no significant improvement |
| Ac-RRRRRCGCGGPLYKKIIKKLLES (cysteine pairing not given here) [P1828] | no significant improvement |
